We go through one compound from patent US20100222282A1, “METHOD OF DIAGNOSIS AND METHOD OF TREATMENT” (ENTRESS AB, priority 2006, published 2010).

The conditions of data set [1]: rats of the experimental groups. From the text:
(§1) The aim of this experiment was to study the relationship between the blood level of AKG and survival of elderly rats. Forty Sprague-Dawley rats randomly chosen (2-3 years old) from the Department of Cell & Organisms Biology in Lund University were used in the experiment. The rats were divided into four groups, 10 rats each, two control groups and two experiment groups. […] The mixtures were titrated with 0.01 M NaOH to correct the pH.
(§2) Blood samples were taken at the beginning of the experiment from all rats and blood AKG levels were estimated. Experimental time was 8 weeks and parameters as AKG blood levels and survival were monitored.

Data set [2] has as its system Sprague-Dawley rats (2-3 years old). The conditions noted are these: experimental groups, 8 weeks.
Text: as §1, §2

In the case of `O=C([O-])CCC(=O)C(=O)[O-].[Na+].[Na+]` [Na2AKG * 2H2O, sodium alpha-ketoglutarate], the “Blood levels of AKG after oral feeding” value in data set [1] is “over 0.5 μg/ml”. Also, the “Survival of rats with initially low blood AKG (under 0.1 μg/ml)” value in data set [2] is recorded as “did survive the whole experiment”.
